Experimental data as given in ChEMBL document CHEMBL3044764, “Synthesis and herbicidal activities of 2-cyano-3-benzylaminoacrylates containing thiazole moiety” (2010).

Tests used:
Medicago sativa [1] = experiment: Post-emergence herbicidal activity against Medicago sativa (alfalfa) at 1500 g/ha after 10 days; type: functional
Amaranthus retroflexus [2] = experiment: Post-emergence herbicidal activity against Amaranthus retroflexus at 1500 g/ha after 10 days; type: functional
Amaranthus retroflexus [3] = experiment: Pre-emergence herbicidal activity against Amaranthus retroflexus at 1500 g/ha after 10 days; type: functional
Brassica napus [4] = experiment: Pre-emergence herbicidal activity against Brassica napus (oilseed rape) at 1500 g/ha after 10 days; type: functional
[5] = target: Photosystem II protein D1 (Spinacia oleracea) (UniProt P69560); experiment: Inhibition of photosystem II in Spinacia oleracea (spinach) chloroplast assessed as inhibition of hill reaction at 1 ug/ml relative to control
Medicago sativa [6] = experiment: Pre-emergence herbicidal activity against Medicago sativa (alfalfa) at 1500 g/ha after 10 days; type: functional
Brassica napus [7] = experiment: Post-emergence herbicidal activity against Brassica napus (oilseed rape) at 1500 g/ha after 10 days; type: functional
Brassica napus [8] = experiment: Post-emergence herbicidal activity against Brassica napus (oilseed rape) at 750 g/ha after 10 days; type: functional
Amaranthus retroflexus [9] = experiment: Post-emergence herbicidal activity against Amaranthus retroflexus at 375 g/ha after 10 days; type: functional
Brassica napus [10] = experiment: Post-emergence herbicidal activity against Brassica napus (oilseed rape) after 10 days; type: functional
Brassica napus [11] = experiment: Post-emergence herbicidal activity against Brassica napus (oilseed rape) at 375 g/ha after 10 days; type: functional
Amaranthus retroflexus [12] = experiment: Post-emergence herbicidal activity against Amaranthus retroflexus at 750 g/ha after 10 days; type: functional

Compound	Activity (Medicago sativa [1])	Activity (Amaranthus retroflexus [2])	Activity (Amaranthus retroflexus [3])	Activity (Brassica napus [4])	inhibition [5]	Activity (Medicago sativa [6])	Activity (Brassica napus [7])	Activity (Brassica napus [8])	Activity (Amaranthus retroflexus [9])	LD50 (Brassica napus [10])	LD90 (Brassica napus [10])	Activity (Brassica napus [11])	Activity (Amaranthus retroflexus [12])
COCCOC(=O)/C(C#N)=C(/C)NCc1ccc(OCc2cnc(Cl)s2)cc1	0%	0%	0%	0%	65.2%	0%	98.5%						
CCOCCOC(=O)/C(C#N)=C(/CC)NCc1ccc(OCc2cnc(Cl)s2)cc1	10%	96.3%	0%	0%	70.2%	0%	100%	100%	24.5%	83.96 g/ha	311.43 g/ha	40%	84.4%
CCOCCOC(=O)/C(C#N)=C(/CC)NCc1ccc(OCc2cnc(Cl)s2)c(OC)c1	41.9%	100%	10%	5%	71.3%	0%	98.3%	74.6%	21%	196.53 g/ha	862.13 g/ha	41.2%	30.9%
CCOCCOC(=O)/C(C#N)=C(\NCc1ccc(OCc2cnc(Cl)s2)cc1)C(C)C	15%	91.6%	0%	0%	72.5%	0%	100%	100%	47.2%	73.01 g/ha	185.4 g/ha	51.2%	100%
CCOCCOC(=O)/C(C#N)=C(\NCc1ccc(OCc2cnc(Cl)s2)c(OC)c1)C(C)C	68.5%	100%	0%	0%	93.8%	0%	100%	100%	59.3%	131.42 g/ha	484.4 g/ha	73.5%	87.8%
CCOCCOC(=O)/C(C#N)=C(\NCc1ccc(OCc2cnc(Cl)s2)c(OC)c1)SC	49.2%	97.4%	0%	10%	87.1%	10%	86.3%			507.9 g/ha	2548.33 g/ha		
COCCOC(=O)/C(C#N)=C(\NCc1ccc(OCc2cnc(Cl)s2)cc1)SC	30%	71.3%	0%	0%	80.9%	0%	100%						
CCOCCOC(=O)/C(C#N)=C(\NCc1ccc(Cl)nc1)SC	85%	100%	35.1%	90.7%	75.8%	0%	100%	100%	100%	8.84 g/ha	133.77 g/ha	100%	100%
COCCOC(=O)/C(C#N)=C(\NCc1ccc(OCc2cnc(Cl)s2)c(OC)c1)SC	66.1%	89.6%	2.7%	0%	61.2%	50.6%	83.6%						
COCCOC(=O)/C(C#N)=C(\NCc1ccc(OCc2cnc(Cl)s2)c(OC)c1)C(C)C	71.1%	100%	0%	41.7%	80.4%	42.9%	100%	94.1%	73.6%	101.62 g/ha	251.01 g/ha	62.4%	89.8%
CC/C(NCc1ccc(OCc2cnc(Cl)s2)cc1)=C(\C#N)C(=O)OCCOC	0%	0%	0%	0%	59.6%	0%	100%			205.19 g/ha	640.88 g/ha		
CCOCCOC(=O)/C(C#N)=C(/C)NCc1ccc(OCc2cnc(Cl)s2)cc1	0%	32.6%	0%	0%	56.5%	0%	100%						
CCOCCOC(=O)/C(C#N)=C(\NCc1ccc(OCc2cnc(Cl)s2)cc1)SC	0%	100%	0%	10%	72.5%	0%	100%	100%	55.6%	49.14 g/ha	197.66 g/ha	95.1%	91.6%
CCOCCOC(=O)/C(C#N)=C(/C)NCc1ccc(OCc2cnc(Cl)s2)c(OC)c1	30%	89.6%	5%	0%	68.5%	30.6%	94.2%						
CC/C(NCc1ccc(OCc2cnc(Cl)s2)c(OC)c1)=C(\C#N)C(=O)OCCOC	46.8%	100%	0%	0%	70.2%	2%	96.6%	46.4%	0%	237.1 g/ha	817.35 g/ha	42.9%	32.9%
COCCOC(=O)/C(C#N)=C(/C)NCc1ccc(OCc2cnc(Cl)s2)c(OC)c1	56.5%	92.2%	0%	15%	42.7%	0%	84.6%						
COCCOC(=O)/C(C#N)=C(\NCc1ccc(OCc2cnc(Cl)s2)cc1)C(C)C	30%	91.6%	0%	0%	82%	0%	100%	100%	98.1%	53.48 g/ha	146.04 g/ha	92.8%	100%
